Tests used:
S. pneumoniae D39V [1] = experiment: fitness (endpoint OD595 vs no drug) (fraction); higher = more growth
In short: (§1)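 Fitness was measured as bacterial growth in 384-well plates inoculated at OD595 0.01 (30 µl, or 55 µl for S. pneumoniae). Media were TSB, LB Lennox or CY, at 37 °C. OD595 was read every 30 min for 14 h and background-subtracted against the first reading. Fitness is OD595 at the transition into stationary phase divided by the robust mean of no-drug control wells, capped at 1.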

S. aureus DSM 20231 [2] = experiment: as above
In short: as §1

S. aureus Newman [3] = experiment: as above
In short: as §1

S. pneumoniae D39V [4] = experiment: Bliss interaction score (quartile over a dose matrix) (fitness difference); higher = more antagonism (negative = synergy)
In short: (§2)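 The Bliss score is observed fitness minus expected fitness, where the expected value is the product of single-drug fitness values inferred from combination data. Fitness is OD595 at entry into stationary phase normalised to the plate's robust no-drug mean and capped at 1. Scores are reported as quartiles spanning technical, biological and donor/recipient replicates.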

S. aureus DSM 20231 [5] = experiment: as above
In short: as §2

B. subtilis 168 = experiment: as above
In short: as §2

S. aureus Newman [6] = experiment: as above
In short: as §2
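Wherever Bliss interaction score (quartile over a dose matrix) is given: first quartile when negative (synergy) and third quartile when positive (antagonism).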
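Wherever fitness (endpoint OD595 vs no drug) is given: OD595 on entry to stationary phase over no-drug wells; at most 1.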

CC1(C)S[C@@H]2[C@H](NC(=O)[C@H](N)c3ccc(O)cc3)C(=O)N2[C@H]1C(=O)O [Amoxicillin] + CCN(CC)CCOC(=O)c1ccc(N)cc1 [Procaine]
fitness
Conditions | partner 85.5 µg/mL | partner 171 µg/mL | partner 342 µg/mL
S. aureus DSM 20231 [2], first compound 0.0625 µg/mL | 0.455 | 0.523 | 0.523
S. aureus DSM 20231 [2], first compound 0.125 µg/mL | 0.423 | 0.478 | 0.495
S. aureus DSM 20231 [2], first compound 0.25 µg/mL | 0.0255 | – | –
S. aureus Newman [3], first compound 0.0625 µg/mL | 0.862 | 0.875 | 0.861
S. aureus Newman [3], first compound 0.125 µg/mL | – | 0.847 | 0.861
S. aureus Newman [3], first compound 0.25 µg/mL | – | 0.841 | 0.811
S. pneumoniae D39V [1], first compound 0.0008 µg/mL | 1 | 0.989 | 0.942
S. pneumoniae D39V [1], first compound 0.0015 µg/mL | 0.985 | 0.971 | 0.987
S. pneumoniae D39V [1], first compound 0.003 µg/mL | 0.918 | 0.93 | 0.992

fitness, one replicate
Conditions | partner 85.5 µg/mL | partner 171 µg/mL | partner 342 µg/mL
S. aureus DSM 20231 [2], first compound 0.5 µg/mL | 0.0288 | 0.0239 | 0.0199
S. pneumoniae D39V [1], first compound 0.006 µg/mL | 0.536 | 0.524 | 0.519

Conditions | Bliss interaction score
B. subtilis 168 | -0.036
S. aureus DSM 20231 [5] | -0.0798
S. aureus Newman [6] | -0.0462
S. pneumoniae D39V [4] | 0.0262

CC1(C)S[C@@H]2[C@H](NC(=O)[C@H](N)c3ccc(O)cc3)C(=O)N2[C@H]1C(=O)O [Amoxicillin] + CO/N=C(\C(=O)N[C@@H]1C(=O)N2C(C(=O)[O-])=C(C[N+]3(C)CCCC3)CS[C@H]12)c1csc(N)n1 [Cefepime]
Conditions | fitness
S. aureus DSM 20231 [2], first compound 0.0625 µg/mL, partner 0.125 µg/mL | 0.566
S. aureus DSM 20231 [2], first compound 0.0625 µg/mL, partner 0.25 µg/mL | 0.553
S. aureus DSM 20231 [2], first compound 0.0625 µg/mL, partner 0.5 µg/mL | 0.499
S. aureus DSM 20231 [2], first compound 0.125 µg/mL, partner 0.125 µg/mL | 0.393
S. aureus DSM 20231 [2], first compound 0.125 µg/mL, partner 0.25 µg/mL | 0.477
S. aureus DSM 20231 [2], first compound 0.25 µg/mL, partner 0.125 µg/mL | 0.307
S. aureus DSM 20231 [2], first compound 0.25 µg/mL, partner 0.25 µg/mL | 0.195
S. aureus DSM 20231 [2], first compound 0.25 µg/mL, partner 0.5 µg/mL | 0.0559
S. aureus DSM 20231 [2], first compound 0.5 µg/mL, partner 0.125 µg/mL | 0
S. aureus DSM 20231 [2], first compound 0.5 µg/mL, partner 0.25 µg/mL | 0.0413
S. aureus DSM 20231 [2], first compound 0.5 µg/mL, partner 0.5 µg/mL | 0.0026
S. aureus Newman [3], first compound 0.0625 µg/mL, partner 0.125 µg/mL | 0.829
S. aureus Newman [3], first compound 0.0625 µg/mL, partner 0.25 µg/mL | 0.792
S. aureus Newman [3], first compound 0.0625 µg/mL, partner 0.5 µg/mL | 0.707
S. aureus Newman [3], first compound 0.125 µg/mL, partner 0.125 µg/mL | 0.906
S. aureus Newman [3], first compound 0.125 µg/mL, partner 0.25 µg/mL | 0.788
S. aureus Newman [3], first compound 0.125 µg/mL, partner 0.5 µg/mL | 0.736
S. aureus Newman [3], first compound 0.25 µg/mL, partner 0.125 µg/mL | 0.851
S. aureus Newman [3], first compound 0.25 µg/mL, partner 0.25 µg/mL | 0.725
S. aureus Newman [3], first compound 0.25 µg/mL, partner 0.5 µg/mL | 0.753
S. pneumoniae D39V [1], first compound 0.0008 µg/mL, partner 0.007 µg/mL | 0.977
S. pneumoniae D39V [1], first compound 0.0008 µg/mL, partner 0.014 µg/mL | 0.982
S. pneumoniae D39V [1], first compound 0.0008 µg/mL, partner 0.028 µg/mL | 0.849
S. pneumoniae D39V [1], first compound 0.0015 µg/mL, partner 0.007 µg/mL | 0.989
S. pneumoniae D39V [1], first compound 0.0015 µg/mL, partner 0.0078 µg/mL | ≥ 1
S. pneumoniae D39V [1], first compound 0.0015 µg/mL, partner 0.014 µg/mL | 0.959
S. pneumoniae D39V [1], first compound 0.0015 µg/mL, partner 0.0155 µg/mL | ≥ 1
S. pneumoniae D39V [1], first compound 0.0015 µg/mL, partner 0.028 µg/mL | 0.82
S. pneumoniae D39V [1], first compound 0.0015 µg/mL, partner 0.031 µg/mL | 0.792
S. pneumoniae D39V [1], first compound 0.003 µg/mL, partner 0.007 µg/mL | 0.943
S. pneumoniae D39V [1], first compound 0.003 µg/mL, partner 0.0078 µg/mL | ≥ 1
S. pneumoniae D39V [1], first compound 0.003 µg/mL, partner 0.014 µg/mL | 0.942
S. pneumoniae D39V [1], first compound 0.003 µg/mL, partner 0.0155 µg/mL | 0.907
S. pneumoniae D39V [1], first compound 0.003 µg/mL, partner 0.028 µg/mL | 0.813
S. pneumoniae D39V [1], first compound 0.003 µg/mL, partner 0.031 µg/mL | 0.499

fitness, S. pneumoniae D39V [1], one replicate
Conditions | partner 0.0078 µg/mL | partner 0.0155 µg/mL | partner 0.031 µg/mL
first compound 0.0008 µg/mL | ≥ 1 | ≥ 1 | 0.811
first compound 0.006 µg/mL | 0.484 | 0.384 | 0.103

Conditions | Bliss interaction score
B. subtilis 168 | 0.0811
S. aureus DSM 20231 [5] | 0.0643
S. aureus Newman [6] | -0.0522
S. pneumoniae D39V [4] | -0.0542

CC1(C)S[C@@H]2[C@H](NC(=O)[C@H](N)c3ccc(O)cc3)C(=O)N2[C@H]1C(=O)O [Amoxicillin] + Cn1nnc(-c2ccc(-c3ccc(N4C[C@H](CO)OC4=O)cc3F)cn2)n1 [Tedizolid]
fitness
Conditions | partner 0.03125 µg/mL | partner 0.0625 µg/mL | partner 0.125 µg/mL | partner 0.25 µg/mL | partner 0.5 µg/mL
S. aureus DSM 20231 [2], first compound 0.0625 µg/mL | – | 0.65 | 0.395 | 0.151 | –
S. aureus DSM 20231 [2], first compound 0.125 µg/mL | – | – | 0.184 | 0.0385 | –
S. aureus DSM 20231 [2], first compound 0.25 µg/mL | – | 0.0658 | 0.0466 | 0.0313 | –
S. aureus Newman [3], first compound 0.0625 µg/mL | – | 0.853 | – | – | –
S. aureus Newman [3], first compound 0.125 µg/mL | – | 0.807 | – | – | –
S. pneumoniae D39V [1], first compound 0.0008 µg/mL | 0.961 | 0.966 | 0.781 | – | –
S. pneumoniae D39V [1], first compound 0.0015 µg/mL | 0.949 | 0.94 | 0.788 | 0.692 | 0.306
S. pneumoniae D39V [1], first compound 0.003 µg/mL | 0.96 | 0.933 | 0.759 | 0.691 | 0.339

fitness, one replicate
Conditions | partner 0.0625 µg/mL | partner 0.125 µg/mL | partner 0.25 µg/mL | partner 0.5 µg/mL
S. aureus DSM 20231 [2], first compound 0.5 µg/mL | 0.015 | 0.0045 | 0.0057 | –
S. pneumoniae D39V [1], first compound 0.0008 µg/mL | – | – | 0.7 | 0.335
S. pneumoniae D39V [1], first compound 0.006 µg/mL | – | 0.562 | 0.462 | 0.283

Conditions | Bliss interaction score
B. subtilis 168 | -0.0425
S. aureus DSM 20231 [5] | -0.0515
S. aureus Newman [6] | -0.0673
S. pneumoniae D39V [4] | 0.175

CO/N=C(\C(=O)N[C@@H]1C(=O)N2C(C(=O)[O-])=C(C[N+]3(C)CCCC3)CS[C@H]12)c1csc(N)n1 [Cefepime] + C[C@@H]1O[C@@H]1P(=O)(O)O [Fosfomycin]
Conditions | fitness
S. aureus DSM 20231 [2], first compound 0.125 µg/mL, partner 0.781 µg/mL | 0.649
S. aureus DSM 20231 [2], first compound 0.125 µg/mL, partner 1.562 µg/mL | 0.503
S. aureus DSM 20231 [2], first compound 0.125 µg/mL, partner 3.124 µg/mL | 0.456
S. aureus DSM 20231 [2], first compound 0.25 µg/mL, partner 0.781 µg/mL | 0.633
S. aureus DSM 20231 [2], first compound 0.25 µg/mL, partner 1.562 µg/mL | 0.512
S. aureus DSM 20231 [2], first compound 0.25 µg/mL, partner 3.124 µg/mL | 0.488
S. aureus DSM 20231 [2], first compound 0.5 µg/mL, partner 0.781 µg/mL | 0.67
S. aureus DSM 20231 [2], first compound 0.5 µg/mL, partner 1.562 µg/mL | 0.559
S. aureus DSM 20231 [2], first compound 0.5 µg/mL, partner 3.124 µg/mL | 0.539
S. aureus Newman [3], first compound 0.125 µg/mL, partner 0.781 µg/mL | 0.691
S. aureus Newman [3], first compound 0.125 µg/mL, partner 1.562 µg/mL | 0.599
S. aureus Newman [3], first compound 0.125 µg/mL, partner 3.124 µg/mL | 0.301
S. aureus Newman [3], first compound 0.25 µg/mL, partner 0.781 µg/mL | 0.653
S. aureus Newman [3], first compound 0.25 µg/mL, partner 1.562 µg/mL | 0.587
S. aureus Newman [3], first compound 0.25 µg/mL, partner 3.124 µg/mL | 0.305
S. aureus Newman [3], first compound 0.5 µg/mL, partner 0.781 µg/mL | 0.659
S. aureus Newman [3], first compound 0.5 µg/mL, partner 1.562 µg/mL | 0.568
S. aureus Newman [3], first compound 0.5 µg/mL, partner 3.124 µg/mL | 0.276
S. pneumoniae D39V [1], first compound 0.007 µg/mL, partner 1.25 µg/mL | 0.966
S. pneumoniae D39V [1], first compound 0.007 µg/mL, partner 2.5 µg/mL | 0.911
S. pneumoniae D39V [1], first compound 0.007 µg/mL, partner 5 µg/mL | 0.677
S. pneumoniae D39V [1], first compound 0.0078 µg/mL, partner 1.25 µg/mL | 0.987
S. pneumoniae D39V [1], first compound 0.0078 µg/mL, partner 2.5 µg/mL | 0.957
S. pneumoniae D39V [1], first compound 0.0078 µg/mL, partner 5 µg/mL | 0.755
S. pneumoniae D39V [1], first compound 0.014 µg/mL, partner 1.25 µg/mL | 0.984
S. pneumoniae D39V [1], first compound 0.014 µg/mL, partner 2.5 µg/mL | 0.889
S. pneumoniae D39V [1], first compound 0.014 µg/mL, partner 5 µg/mL | 0.62
S. pneumoniae D39V [1], first compound 0.0155 µg/mL, partner 1.25 µg/mL | 0.962
S. pneumoniae D39V [1], first compound 0.0155 µg/mL, partner 2.5 µg/mL | 0.932
S. pneumoniae D39V [1], first compound 0.0155 µg/mL, partner 5 µg/mL | 0.633
S. pneumoniae D39V [1], first compound 0.028 µg/mL, partner 1.25 µg/mL | 0.844
S. pneumoniae D39V [1], first compound 0.028 µg/mL, partner 2.5 µg/mL | 0.707
S. pneumoniae D39V [1], first compound 0.028 µg/mL, partner 5 µg/mL | 0.273
S. pneumoniae D39V [1], first compound 0.031 µg/mL, partner 1.25 µg/mL | 0.789

Conditions | Bliss interaction score
B. subtilis 168 | -0.0571
S. aureus DSM 20231 [5] | -0.0913
S. aureus Newman [6] | 0.16
S. pneumoniae D39V [4] | -0.0837

Source: the supplement of paper PMC10627819
